Measured values taken from ChEMBL document CHEMBL1201862, “PubChem BioAssay data set” (2004).
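Five concentrations, 48 hours, 96-well plates. Abbreviation: GI50, concentration required for 50% inhibition of growth.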 The source made the active and inactive calls. Cut-off read from the data, not from the text of the source: active = GI50 up to about 1.1 µM and inactive = higher.

What was measured:
Assay in all cases: inhibition of tumour cell growth, NCI panel, 48 h
[1] = tested on: TK-10
[2] = tested on: SK-MEL-28
[3] = tested on: RXF 393
[4] = tested on: COLO 205
[5] = tested on: U-251
[6] = tested on: OVCAR-3
[7] = tested on: 786-0
[8] = tested on: DU-145
[9] = tested on: SR
[10] = tested on: MOLT-4
[11] = tested on: CCRF-CEM
[12] = tested on: EKVX
[13] = tested on: A549
[14] = tested on: OVCAR-4
[15] = tested on: KM12
[16] = tested on: HCC 2998
[17] = tested on: UO-31
[18] = tested on: NCI-H522
[19] = tested on: IGROV-1
[20] = tested on: MDA-N

Measured: GI50

Nc1sc2c(c1C(=O)c1ccc(Cl)c(Cl)c1)CCCC2
inactive: [1] 41.9 µM | [2] > 100 µM | [3] 27.2 µM | [4] 32.3 µM | [5] 45 µM | [6] 60.4 µM | [7] 68.7 µM | [8] > 100 µM | [9] 27.8 µM | [10] 21.7 µM | [11] 26.4 µM | [12] 29.1 µM | [13] 51.9 µM | [14] 28.7 µM | [15] 22.3 µM | [16] 17.3 µM | [17] 58.2 µM | [18] 21 µM

CC1=C(SCc2ccccc2)C(=O)c2ccccc2C1=O
inactive: [1] 21 µM | [2] 19.2 µM | [3] 16.6 µM | [4] 19.7 µM | [5] 16.8 µM | [6] 10.5 µM | [7] 13.2 µM | [8] 19.8 µM | [10] 1.68 µM | [11] 2.9 µM | [12] 19.1 µM | [19] 12 µM | [14] 13.9 µM | [15] 18.5 µM | [16] 26.7 µM

Cc1ccc(S(=O)(=O)NC2=NS(=O)(=O)c3cc(C)c(Cl)cc3S2)cc1
inactive: [1] > 100 µM | [2] > 100 µM | [3] 76.7 µM | [4] > 100 µM | [5] > 100 µM | [6] > 100 µM | [7] > 100 µM | [8] > 100 µM | [9] 63.4 µM | [10] 39.1 µM | [12] > 100 µM | [19] > 100 µM | [13] > 100 µM | [14] > 100 µM | [15] > 100 µM | [16] 82.6 µM | [17] > 100 µM | [18] 42.3 µM

CC1C2(C)OC(=N)C(C#N)(C(c3ccccc3)O2)C1(C#N)C#N (stereo not drawn)
inactive: [1] 36 µM | [2] > 10 µM | [3] 30.3 µM | [4] 16.4 µM | [5] 18.7 µM | [6] 15.1 µM | [7] 21.2 µM | [8] 31.3 µM | [10] 25.4 µM | [11] 17.6 µM | [12] 21.4 µM | [19] 33.8 µM | [13] > 100 µM | [20] 18.2 µM | [15] 51.5 µM | [16] 10.8 µM | [17] 39.8 µM

NC(=O)C(=Cn1c(=S)[nH]c2ccc([N+](=O)[O-])cc21)C(N)=O
inactive: [1] > 100 µM | [2] > 100 µM | [3] > 100 µM | [4] > 100 µM | [5] > 100 µM | [6] > 100 µM | [7] > 100 µM | [8] > 100 µM | [10] > 100 µM | [12] 19.7 µM | [19] > 100 µM | [13] > 100 µM | [20] > 100 µM | [14] > 100 µM | [15] > 100 µM | [16] > 100 µM | [17] > 100 µM

C/C=C\C(CC(=O)OC)CC(=O)N(CCC1CN(S(=O)(=O)C(F)(F)F)c2ccccc21)Cc1ccc(OC)cc1OC (stereo not drawn)
inactive: [1] > 100 µM | [2] > 100 µM | [3] > 100 µM | [4] > 100 µM | [5] > 100 µM | [6] > 100 µM | [7] > 100 µM | [10] > 100 µM | [12] > 100 µM | [19] > 100 µM | [13] 77.4 µM | [20] > 100 µM | [14] 54.7 µM | [15] 45.1 µM | [16] > 100 µM | [17] > 100 µM | [18] 57.3 µM

Cc1nnc(N/N=C2/C(=O)Nc3c(Cl)cc(Cl)cc32)n1N
inactive: [1] > 100 µM | [2] > 100 µM | [3] 59.2 µM | [4] > 100 µM | [5] > 100 µM | [6] > 100 µM | [7] > 100 µM | [9] 73.8 µM | [10] 44.8 µM | [11] 57.5 µM | [12] > 100 µM | [19] > 100 µM | [13] > 100 µM | [14] > 100 µM | [15] > 100 µM | [16] > 100 µM | [17] > 100 µM | [18] 34.2 µM

CC1=NN(c2nc(N)nc(/C(C#N)=C/c3ccncc3)n2)C(C)(C)C1
inactive: [1] > 100 µM | [2] > 100 µM | [3] 32 µM | [4] > 100 µM | [5] > 100 µM | [7] > 100 µM | [8] 47.4 µM | [9] 74.6 µM | [10] > 100 µM | [11] 49.3 µM | [12] > 100 µM | [19] > 100 µM | [14] > 100 µM | [15] > 100 µM | [16] > 100 µM | [17] > 100 µM

O=C(Nc1sccc1S(=O)(=O)c1ccc(Cl)cc1)c1ccc(Cl)cc1Cl
inactive: [1] > 100 µM | [2] > 100 µM | [3] > 100 µM | [4] > 100 µM | [5] > 78.7 µM | [6] 28.2 µM | [7] > 100 µM | [8] > 100 µM | [9] 12.1 µM | [10] > 85.9 µM | [11] > 100 µM | [12] > 79.4 µM | [19] > 100 µM | [13] > 95.7 µM | [14] > 93.8 µM | [15] 82.2 µM | [17] > 100 µM | [18] 34.1 µM

COc1ccc(-c2c(C#N)c(-c3ccccc3)n(NS(=O)(=O)c3ccccc3)c(=O)c2C#N)cc1
inactive: [1] > 100 µM | [2] > 100 µM | [3] 76.4 µM | [4] > 100 µM | [5] 71.8 µM | [7] > 100 µM | [10] 27.6 µM | [11] 36.9 µM | [12] > 100 µM | [19] 36.3 µM | [13] > 100 µM | [20] > 100 µM | [14] > 100 µM | [15] > 100 µM | [16] 81.5 µM | [18] 20.5 µM

Oc1[nH]c(Nc2ccc(F)c(Cl)c2)nc2ncnc1-2
inactive: [1] > 100 µM | [2] > 100 µM | [4] > 100 µM | [5] 99.1 µM | [6] > 100 µM | [7] 82 µM | [8] > 100 µM | [10] 7.29 µM | [11] > 100 µM | [12] > 100 µM | [19] > 100 µM | [13] > 100 µM | [20] > 100 µM | [14] > 100 µM | [15] > 100 µM | [16] > 100 µM | [17] > 100 µM | [18] > 100 µM
